Values after ≈ are worked out from the molar mass of the structure shown.
Tests used:
[1] = Binding affinity to FLAG/His-tagged Keap1 (unknown origin)/biotinylated full-length FLAG/His/Tev/Avi-tagged Cul3 (unknown origin) expressed in baculovirus infected Sf9 insect cells measured after 1 hr by TR-FRET assay; parameters: species or system Homo sapiens
Keap1/Nrf2 = Keap1/Nrf2 (Homo sapiens, UniProt Q14145+Q16236); assay: Binding affinity to FLAG/His-tagged Keap1 (unknown origin)/biotinylated full-length FLAG/His/Tev/Avi-tagged NRF2 (unknown origin) expressed in baculovirus infected Sf9 insect cells measured after 1 hr by TR-FRET assay
Homo sapiens = species on record: Homo sapiens; assay: Activation of Keap1/Cul3/Nrf2 in NHBE cells assessed as induction of HO-1 gene expression at 10 uM after 24 hrs by RT-PCR analysis relative to SFN; type: cell-based
[2] = Kinetic solubility of the compound at pH 7.4 by CLND method; type: physicochemical; details: buffer, read-out: Kinetic_solubility
[3] = Lipophilicity, log D of the compound at pH 7.4 by chromatographic method; type: physicochemical; details: buffer

Keap1/Nrf2, sequence (Q16236 whole entry): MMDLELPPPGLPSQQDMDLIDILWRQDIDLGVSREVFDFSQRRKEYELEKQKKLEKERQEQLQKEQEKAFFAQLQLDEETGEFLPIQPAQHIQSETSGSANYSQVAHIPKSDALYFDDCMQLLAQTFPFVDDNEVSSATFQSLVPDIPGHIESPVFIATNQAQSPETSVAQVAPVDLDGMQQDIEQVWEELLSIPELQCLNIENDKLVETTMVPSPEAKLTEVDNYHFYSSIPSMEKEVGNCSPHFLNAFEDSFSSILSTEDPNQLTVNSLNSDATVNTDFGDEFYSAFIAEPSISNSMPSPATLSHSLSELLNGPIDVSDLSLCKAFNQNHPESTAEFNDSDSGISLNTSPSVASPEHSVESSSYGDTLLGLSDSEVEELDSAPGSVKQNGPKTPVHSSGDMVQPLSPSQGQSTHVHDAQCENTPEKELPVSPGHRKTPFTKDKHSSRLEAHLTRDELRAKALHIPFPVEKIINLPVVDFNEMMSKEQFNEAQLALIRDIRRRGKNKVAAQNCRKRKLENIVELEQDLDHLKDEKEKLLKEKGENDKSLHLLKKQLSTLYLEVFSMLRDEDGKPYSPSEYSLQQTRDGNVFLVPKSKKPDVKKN
Keap1/Nrf2, sequence (Q14145 whole entry): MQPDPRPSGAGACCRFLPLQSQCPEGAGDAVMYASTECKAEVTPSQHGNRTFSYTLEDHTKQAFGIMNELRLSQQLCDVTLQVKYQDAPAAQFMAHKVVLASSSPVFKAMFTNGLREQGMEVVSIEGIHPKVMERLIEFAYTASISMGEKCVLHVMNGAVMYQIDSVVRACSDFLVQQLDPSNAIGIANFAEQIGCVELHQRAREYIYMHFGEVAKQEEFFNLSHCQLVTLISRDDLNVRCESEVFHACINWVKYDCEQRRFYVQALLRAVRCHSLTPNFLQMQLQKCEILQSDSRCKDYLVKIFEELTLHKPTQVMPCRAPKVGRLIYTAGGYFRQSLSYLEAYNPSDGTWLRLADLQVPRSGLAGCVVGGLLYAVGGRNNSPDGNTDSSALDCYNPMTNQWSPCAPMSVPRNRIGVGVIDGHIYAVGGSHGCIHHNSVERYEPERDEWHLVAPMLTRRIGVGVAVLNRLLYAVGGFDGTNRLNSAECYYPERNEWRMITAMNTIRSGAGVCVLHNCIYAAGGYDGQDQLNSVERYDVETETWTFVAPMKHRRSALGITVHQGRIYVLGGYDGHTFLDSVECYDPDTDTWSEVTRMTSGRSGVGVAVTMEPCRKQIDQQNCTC

IC50 (Keap1/Nrf2)	solubility kinetic [2]	chromatographic logD [3]	SMILES	pIC50 [1]	fold change (FC) (Homo sapiens)
15.8 µM	247 µM (≈ 65.1 µg/mL)	4.29	O=C(NCCCCN=C=S)NCc1ccccc1	4.7	6.42
63.1 µM	362 µM (≈ 91.7 µg/mL)	4.69	Cc1ccccc1[S+]([O-])CCCCN=C=S (stereo not drawn)	4.6	1.3
50.1 µM	≥ 436 µM	2	CNC(=O)NCCCCN=C=S	4.1	1.04
15.8 µM	≥ 356 µM	3.13	O=C(NCCCCN=C=S)Nc1ccc2nccnc2c1	5.1	13.2
15.8 to 25.1 µM	201 to 224 µM (≈ 48.3 to 53.8 µg/mL)	2.34 to 3.5	[O-][S+](CCCCN=C=S)c1ccncc1 (stereo not drawn)	4.4	15.8 to 15.9
15.8 µM	131 µM (≈ 40.3 µg/mL)	4.04	O=C(NCCCCN=C=S)Nc1ccc2c(c1)OCCO2	4.9	0.65
50.1 µM	281 µM	0.49	Cl.O=C(NCCCCNC(=S)SC1CCNCC1)Nc1ccncc1	4.7	25.8
50.1 µM	≥ 364 µM	4.92	O=S(=O)(CCCCN=C=S)c1ccccc1	4.6	4.31
5.01 µM		3.77	O=C(NCCCCN=C=S)Nc1ccc2scnc2c1	5.2	3.75
31.6 µM	≥ 331 µM	3.85	O=S(=O)(CCCCN=C=S)c1ccccn1	4.3	2.24
25.1 µM	337 µM (≈ 88.4 µg/mL)	2.59	O=C(CCc1ccccc1)NCCCCN=C=S	4.4	9.84
> 100 µM	≥ 358 µM	2.86	O=C(NCCCCN=C=S)c1ccncc1	4.4	0.93
5.01 µM			O=C(NCCCN=C=S)OCc1ccccc1	5	32.2
12.6 µM			O=C(NCCCCN=C=S)OCc1ccccc1	5.1	0.63
> 100 µM			CC(=O)NCCCCN=C=S	4.2	0.54
> 100 µM	1 µM (≈ 0.232 µg/mL)		COCCOC(=O)NCCCCN=C=S	< 4	0.17
> 100 µM			CNC(=O)CCCCN=C=S	4.1	0.7
7.94 µM		1.91	CN1CCC(SC(=S)NCCCCNC(=O)Nc2ccc3ncsc3c2)CC1	5.4	25.5
31.6 µM		5.45	CC(C)(C)OC(=O)N1CCC(SC(=S)NCCCCNC(=O)Nc2ccc3ncsc3c2)CC1	4.7	18.3
50.1 µM	369 µM (≈ 88.7 µg/mL)		O=C(NCCCCN=C=S)C1CCCCC1	4.4	1.13

Second part, the molecule before the results:

SMILES	IC50 (Keap1/Nrf2)	solubility kinetic [2]	chromatographic logD [3]	pIC50 [1]	fold change (FC) (Homo sapiens)
CN1CCC(SC(=S)NCCCCNC(=O)Nc2cccnc2)CC1	39.8 µM	≥ 345 µM	1.11	4.7	16
CC(C)(C)OC(=O)N1CCC(SC(=S)NCCCCNC(=O)OCc2ccccn2)CC1	> 100 µM	80 µM (≈ 38.6 µg/mL)	5.67	< 4	1.47
[O-][S+](CCCCN=C=S)c1ccccc1 (stereo not drawn)	50.1 µM	213 µM (≈ 51 µg/mL)	4.11	4.3	5.99
CC(C)(C)OC(=O)N1CCC(SC(=S)NCCCCNC(=O)Nc2cccnc2)CC1	50.1 µM	114 µM (≈ 53.3 µg/mL)	4.97	4.3	2.88
CN(C)CC[S+]([O-])CCCCN=C=S (stereo not drawn)	> 100 µM	≥ 219 µM	1.47	< 4	0.49
CC(C)(C)OC(=O)N1CCC(SC(=S)NCCCCNC(=O)NCc2ccccc2)CC1	7.94 µM	34 µM (≈ 16.3 µg/mL)	6.05	4.7	18.6
CN1CCC(SC(=S)NCCCCNC(=O)OCc2ccccc2Cl)CC1	3.98 µM	280 µM (≈ 120 µg/mL)	4.06	5.3	6.26
Cn1cc(CCN=C=S)c2ccccc21	10 µM	38 µM (≈ 8.22 µg/mL)	7.23	5.2	0.04
O=S(=O)(CC1(c2ccc(N=C=S)cc2)COC1)c1ccccc1	39.8 µM	9 µM (≈ 3.11 µg/mL)	4.21	4.3	0.23
Cl.O=C(NCCCCNC(=S)SC1CCNCC1)NC1CCCC1	50.1 µM	≥ 323 µM	1.52	4.6	3.46
CNC(=O)NCCCCNC(=S)SC1CCN(C(=O)OC(C)(C)C)CC1	> 100 µM	≥ 377 µM	4.58	< 4	0.59
O=S(=O)(CC1(N2CCC(CN=C=S)CC2)COC1)c1ccccc1	39.8 µM	341 µM (≈ 125 µg/mL)	5.41	4.7	2.98
C[S+]([O-])CCCCCN=C=S (stereo not drawn)	> 100 µM	≥ 458 µM	3.12	4.1	0.35
CC(C)(C)OC(=O)N1CCC(SC(=S)NCCCCNC(=O)Nc2ccncc2)CC1	31.6 µM	85 µM (≈ 39.8 µg/mL)	4.58	4.6	20.7
CN(C)C(=O)/C=C/CCCCC[S+](C)[O-] (stereo not drawn)					0.11
CN(C)C(=O)/C(C#N)=C/CCCCC[S+](C)[O-] (stereo not drawn)					0.33
CS(=O)(=O)N1CCC(CCN=C=S)C1 (stereo not drawn)	> 100 µM	288 µM (≈ 67.5 µg/mL)	3.87	4.3	4.27
CS(=O)(=O)N1CCC(CN=C=S)C1 (stereo not drawn)	> 100 µM	≥ 451 µM	3.22	4.1	0.68
CC(=O)N(C)CC[S+]([O-])CCCCN=C=S (stereo not drawn)	> 100 µM	≥ 110 µM	1.51	< 4	0.29

SMILES	IC50 (Keap1/Nrf2)	solubility kinetic [2]	chromatographic logD [3]	pIC50 [1]	fold change (FC) (Homo sapiens)
CN1CCC(SC(=S)NCCCCNC(=O)Nc2ccc3c(c2)OCCO3)CC1	12.6 µM		2.24	5	23.6
CN1CCC(SC(=S)NCCCC[S+](C)[O-])CC1 (stereo not drawn)	> 100 µM	≥ 536 µM	0.81	< 4	0.93
C[S+]([O-])CCCCNC(=S)SCCNC(=O)OC(C)(C)C (stereo not drawn)	> 100 µM	≥ 432 µM	3.12	< 4	0.58
C[S+]([O-])CCCN=C=S (stereo not drawn)	> 100 µM	331 µM (≈ 54 µg/mL)	0.85	< 4	0.47
C[S+]([O-])CCCCNC(=S)SC1CCNCC1.O=C(O)C(F)(F)F (stereo not drawn)	> 100 µM	255 µM	0.22	< 4	0.34
C[S+]([O-])CCCCNC(=S)SCc1cccc([N+](=O)[O-])c1 (stereo not drawn)	> 100 µM	372 µM (≈ 129 µg/mL)	3.81	< 4	0.39
CC(C)(C)OC(=O)N1CCC(SC(=S)NCCCCNC(=O)Nc2ccc3c(c2)OCO3)CC1	50.1 µM	17 µM (≈ 8.68 µg/mL)	6.04	4.4	55.6
CN1CCC(SC(=S)NCCCCNC(=O)CC2CCCCC2)CC1	15.8 µM		3.28	5	11.5
O=C(CC1CCCCC1)NCCCCN=C=S	25.1 µM	≥ 413 µM		4.8	11.5
CN1CCC(SC(=S)NCC2CCS(=O)(=O)C2)CC1 (stereo not drawn)	> 100 µM	≥ 331 µM	1.03	< 4	0.38
CC(=O)NCCSC(=S)NCCCC[S+](C)[O-] (stereo not drawn)	> 100 µM	≥ 531 µM	0.58		
CN(C)C(=O)/C=C/CCCCCS(C)(=O)=O					0.13
CN(C)C(=O)/C(C#N)=C/CCCCCS(C)(=O)=O					0.18
CSc1c(N(C)CCCC[S+](C)[O-])c(=O)c1=O (stereo not drawn)					0.14
CN(C)C(=O)CCCCN=C=S	> 100 µM			4.2	0.71
CC(C)(C)OC(=O)N1CCC(SC(=S)NCCCCNC(=O)Nc2ccc3c(c2)OCCO3)CC1	31.6 µM		5.79	4.4	74.8
C[S+]([O-])CCCCCCN=C=S (stereo not drawn)	> 100 µM	≥ 324 µM	0.9		
CC[S+]([O-])C(=O)N(CCCC[S+](C)[O-])Cc1ccccc1 (stereo not drawn)					0.27
